Tested on: C. parvum strain UGA1
Experiment: C. parvum growth inhibition assay (Nluc luminescence in HCT-8 cells)
Type: cell-based, Cryptosporidium parvum
Conditions: Cryptosporidium parvum, HCT-8, 48 h, C. parvum growth inhibition in HCT-8 cells, 48 hours, 6 concentrations 10-0.04 μM

For `Cn1cnc(-c2cc3cnc(NC4CCOCC4)cc3n2C)c1` [Example 348, 1-methyl-2-(1-methyl-1H-imidazol-4-yl)-N-(tetrahydro-2H-pyran-4-yl)-1H-pyrrolo[3,2-c]pyridin-6-amine], the EC50 was > 1 µM.
For `c1ccc(-c2cc3cnc(NC4CCOCC4)cc3[nH]2)nc1` [Example 349, 2-(pyridin-2-yl)-N-(tetrahydro-2H-pyran-4-yl)-1H-pyrrolo[3,2-c]pyridin-6-amine], the EC50 was > 1 µM.
With `Cc1ccnc(-c2cc3cnc(NC4CCOCC4)cc3[nH]2)c1` [Example 350, 2-(4-methylpyridin-2-yl)-N-(tetrahydro-2H-pyran-4-yl)-1H-pyrrolo[3,2-c]pyridin-6-amine] the EC50 was > 1 µM.
`Cc1ccc(-c2cc3cnc(NC4CCOCC4)cc3[nH]2)cc1` [Example 351, N-(tetrahydro-2H-pyran-4-yl)-2-p-tolyl-1H-pyrrolo[3,2-c]pyridin-6-amine] was tested, and the EC50 was > 1 µM.
`Cc1cccc(-c2cc3cnc(NC4CCOCC4)cc3[nH]2)c1` [Example 352, N-(tetrahydro-2H-pyran-4-yl)-2-m-tolyl-1H-pyrrolo[3,2-c]pyridin-6-amine] was tested, and the EC50 was > 1 µM.
`c1cc(-c2cc3cnc(NC4CCOCC4)cc3[nH]2)ccn1` [Example 353, 2-(pyridin-4-yl)-N-(tetrahydro-2H-pyran-4-yl)-1H-pyrrolo[3,2-c]pyridin-6-amine] was tested, and the EC50 was < 0.5 µM.
With `Cn1cc(-c2cc3cnc(NC4CCOCC4)cc3[nH]2)cn1` [Example 354, 2-(1-methyl-1H-pyrazol-4-yl)-N-(tetrahydro-2H-pyran-4-yl)-1H-pyrrolo[3,2-c]pyridin-6-amine] the EC50 was > 1 µM.
`Cc1ccccc1-c1cc2cnc(NC3CCOCC3)cc2[nH]1` [Example 357, N-(tetrahydro-2H-pyran-4-yl)-2-o-tolyl-1H-pyrrolo[3,2-c]pyridin-6-amine] was tested, and the EC50 was > 1 µM.
For `Cn1c(-c2ccnc(NCC(F)(F)F)n2)cc2cnc(NC3CCOCC3)cc21` [Example 358, 1-methyl-N-(tetrahydro-2H-pyran-4-yl)-2-(2-(2,2,2-trifluoroethylamino)pyrimidin-4-yl)-1H-pyrrolo[3,2-c]pyridin-6-amine], the EC50 was < 0.5 µM.
For `CC(C)c1cc2cnc(NC3CCOCC3)cc2[nH]1` [Example 359, 2-isopropyl-N-(tetrahydro-2H-pyran-4-yl)-1H-pyrrolo[3,2-c]pyridin-6-amine], the EC50 was > 1 µM.
`FC(F)(F)CNc1cc(-c2cc3cnc(NC4CCOCC4)cc3[nH]2)ncn1` [Example 360, N -(tetrahydro-2H-pyran-4-yl)-2-(6-(2,2,2-trifluoroethylamino)pyrimidin-4-yl)-1H-pyrrolo[3,2-c]pyridin-6-amine] was tested, and the EC50 was < 0.5 µM.
For `CCc1cc2cnc(NC3CCOCC3)cc2[nH]1` [Example 361, 2-ethyl-N-(tetrahydro-2H-pyran-4-yl)-1H-pyrrolo[3,2-c]pyridin-6-amine], the EC50 was > 1 µM.
`Cc1cc(-c2[nH]c3cc(NC4CCOCC4)ncc3c2C)ccn1` [Example 362, 3-methyl-2-(2-methylpyridin-4-yl)-N-(tetrahydro-2H-pyran-4-yl)-1H-pyrrolo[3,2-c]pyridin-6-amine] was tested, and the EC50 was > 1 µM.
`FC(F)(F)CNc1cc(-c2cc3cnc(NC4CCOCC4)cc3[nH]2)ccn1` [Example 363, N-(tetrahydro-2H-pyran-4-yl)-2-(2-(2,2,2-trifluoroethylamino)pyridin-4-yl)-1H-pyrrolo[3,2-c]pyridin-6-amine] was tested, and the EC50 was < 0.5 µM.
`Cn1c(-c2cc(NCC(F)(F)F)ncn2)cc2cnc(NC3CCOCC3)cc21` [Example 365] was tested, and the EC50 was > 1 µM.
For `Cc1cc(-c2[nH]c3cc(NC4CCCCC4)ncc3c2C)ccn1` [Example 369, N-cyclohexyl-3-methyl-2-(2-methylpyridin-4-yl)-1H-pyrrolo[3,2-c]pyridin-6-amine], the EC50 was > 1 µM.
In the case of `CN(CC(F)(F)F)c1nccc(-c2cc3cnc(NC4CCOCC4)cc3[nH]2)n1` [Example 370, 2-(2-(methyl(2,2,2-trifluoroethyl)amino)pyrimidin-4-yl)-N-(tetrahydro-2H-pyran-4-yl)-1H-pyrrolo[3,2-c]pyridin-6-amine], the EC50 is reported as 0.5 to 1 µM.
For `c1cc(-c2cc3cnc(NC4CCOCC4)cc3[nH]2)nc(N2CCCC2)n1` [Example 372, 2-(2-(pyrrolidin-1-yl)pyrimidin-4-yl)-N-(tetrahydro-2H-pyran-4-yl)-1H-pyrrolo[3,2-c]pyridin-6-amine], the EC50 was < 0.5 µM.
With `FC(F)(F)CNc1nccc(-c2cc3cnc(NC4CCC4)cc3[nH]2)n1` [Example 373, N-cyclobutyl-2-(2-(2,2,2-trifluoroethylamino)pyrimidin-4-yl)-1H-pyrrolo[3,2-c]pyridin-6-amine] the EC50 was 0.5 to 1 µM.
`Cc1cc(-c2[nH]c3cc(NC4CCOCC4)ncc3c2C(F)(F)F)ccn1` [Example 375, 2-(2-methylpyridin-4-yl)-N-(tetrahydro-2H-pyran-4-yl)-3-(trifluoromethyl)-1H-pyrrolo[3,2-c]pyridin-6-amine] was tested, and the EC50 was > 1 µM.
`FC(F)(F)c1c[nH]c2cc(NC3CCOCC3)ncc12` [Example 376, N-(tetrahydro-2H-pyran-4-yl)-3-(trifluoromethyl)-1H-pyrrolo[3,2-c]pyridin-6-amine] was tested, and the EC50 was > 1 µM.
In the case of `CCOc1nccc(-c2cc3cnc(NC4CCOCC4)cc3[nH]2)n1` [Example 377, 2-(2-ethoxypyrimidin-4-yl)-N-(tetrahydro-2H-pyran-4-yl)-1H-pyrrolo[3,2-c]pyridin-6-amine], the EC50 is reported as > 1 µM.
In the case of `Cc1nccc(-c2cc3cnc(NC4CCOCC4)cc3n2C)n1` [Example 378, 1-methyl-2-(2-methylpyrimidin-4-yl)-N-(tetrahydro-2H-pyran-4-yl)-1H-pyrrolo[3,2-c]pyridin-6-amine], the EC50 is reported as > 1 µM.
In the case of `FC(F)(F)COc1nccc(-c2cc3cnc(NC4CCOCC4)cc3[nH]2)n1` [Example 380, N-(tetrahydro-2H-pyran-4-yl)-2-(2-(2,2,2-trifluoroethoxy)pyrimidin-4-yl)-1H-pyrrolo[3,2-c]pyridin-6-amine], the EC50 is reported as > 1 µM.
`CN(CC(F)(F)F)c1cc(-c2cc3cnc(NC4CCOCC4)cc3[nH]2)ccn1` [Example 381, 2-(2-(methyl(2,2,2-trifluoroethyl)amino)pyridin-4-yl)-N-(tetrahydro-2H-pyran-4-yl)-1H-pyrrolo[3,2-c]pyridin-6-amine] was tested, and the EC50 was > 1 µM.
`Cn1c(-c2ccnc(NCC(F)(F)F)c2)cc2cnc(NC3CCOCC3)cc21` [Example 382, 1-methyl-N-(tetrahydro-2H-pyran-4-yl)-2-(2-(2,2,2-trifluoroethylamino)pyridin-4-yl)-1H-pyrrolo[3,2-c]pyridin-6-amine] was tested, and the EC50 was > 1 µM.
For `CC(C)Nc1cc2c(cn1)cc(-c1ccnc(NCC(F)(F)F)n1)n2C` [Example 383, N-isopropyl-1-methyl-2-(2-(2,2,2-trifluoroethylamino)pyrimidin-4-yl)-1H-pyrrolo[3,2-c]pyridin-6-amine], the EC50 was > 1 µM.
In the case of `Cn1c(-c2ccnc(NCC(F)(F)F)n2)cc2cnc(NC(C)(C)C)cc21` [Example 384, N-tert-butyl-1-methyl-2-(2-(2,2,2-trifluoroethylamino)pyrimidin-4-yl)-1H-pyrrolo[3,2-c]pyridin-6-amine], the EC50 is reported as > 1 µM.
With `FC(F)(F)CCc1nccc(-c2cc3cnc(NC4CCOCC4)cc3[nH]2)n1` [Example 385, N-(tetrahydro-2H-pyran-4-yl)-2-(2-(3,3,3-trifluoropropyl)pyrimidin-4-yl)-1H-pyrrolo[3,2-c]pyridin-6-amine] the EC50 was > 1 µM.
`CCc1nccc(-c2cc3cnc(NC4CCOCC4)cc3n2C)n1` [Example 387, 2-(2-ethylpyrimidin-4-yl)-1-methyl-N-(tetrahydro-2H-pyran-4-yl)-1H-pyrrolo[3,2-c]pyridin-6-amine] was tested, and the EC50 was > 1 µM.
For `COc1cc(-c2cc3cnc(NC4CCOCC4)cc3n2C)ncn1` [Example 388, 2-(6-methoxypyrimidin-4-yl)-1-methyl-N-(tetrahydro-2H-pyran-4-yl)-1H-pyrrolo[3,2-c]pyridin-6-amine], the EC50 was > 1 µM.
With `CCc1cc(-c2cc3cnc(NC4CCOCC4)cc3n2C)ncn1` [Example 389, 2-(6-ethylpyrimidin-4-yl)-1-methyl-N-(tetrahydro-2H-pyran-4-yl)-1H-pyrrolo[3,2-c]pyridin-6-amine] the EC50 was > 1 µM.
`CNc1cc2c(cn1)cc(-c1ccnc(NCC(F)(F)F)n1)n2C` [Example 390, N,1-dimethyl-2-(2-(2,2,2-trifluoroethylamino)pyrimidin-4-yl)-1H-pyrrolo[3,2-c]pyridin-6-amine] was tested, and the EC50 was > 1 µM.
`CC(C)c1nccc(-c2cc3cnc(NC4CCOCC4)cc3n2C)n1` [Example 391, 2-(2-isopropylpyrimidin-4-yl)-1-methyl-N-(tetrahydro-2H-pyran-4-yl)-1H-pyrrolo[3,2-c]pyridin-6-amine] was tested, and the EC50 was > 1 µM.
With `Cn1c(-c2cc(C(F)(F)F)ncn2)cc2cnc(NC3CCOCC3)cc21` [Example 392, 1-methyl-N-(tetrahydro-2H-pyran-4-yl)-2-(6-(trifluoromethyl)pyrimidin-4-yl)-1H-pyrrolo[3,2-c]pyridin-6-amine] the EC50 was > 1 µM.
With `Cc1cc(-c2cc3cnc(NC4CCOCC4)cc3[nH]2)nc(C)n1` [Example 393, 2-(2,6-dimethylpyrimidin-4-yl)-N-(tetrahydro-2H-pyran-4-yl)-1H-pyrrolo[3,2-c]pyridin-6-amine] the EC50 was > 1 µM.
With `CN(CC(F)(F)F)c1cc(-c2cc3cnc(NC4CCOCC4)cc3[nH]2)ncn1` [Example 394, 2-(6-(methyl(2,2,2-trifluoroethyl)amino)pyrimidin-4-yl)-N-(tetrahydro-2H-pyran-4-yl)-1H-pyrrolo[3,2-c]pyridin-6-amine] the EC50 was > 1 µM.
In the case of `CC(C)c1cc(-c2cc3cnc(NC4CCOCC4)cc3n2C)ncn1` [Example 395, 2-(6-isopropylpyrimidin-4-yl)-1-methyl-N-(tetrahydro-2H-pyran-4-yl)-1H-pyrrolo[3,2-c]pyridin-6-amine], the EC50 is reported as > 1 µM.
For `Cn1c(-c2ccnc(C(F)(F)F)n2)cc2cnc(NC3CCOCC3)cc21` [Example 396, 1-methyl-N-(tetrahydro-2H-pyran-4-yl)-2-(2-(trifluoromethyl)pyrimidin-4-yl)-1H-pyrrolo[3,2-c]pyridin-6-amine], the EC50 was > 1 µM.
